Assay [1] concerns formalin-induced spontaneous pain behaviors. The format is in vivo, mice.
The next assay has as its system acute heat pain response. The format is in vivo, mice.
The next assay concerns hNav1.7 mutants. The assay is classed as cell-based, human.
The test system of assay [2] is capsaicin-induced nociceptive behavior. The assay is described as follows: Capsaicin-induced nociception. The format is in vivo, mice. The settings on record: 100 μg/kg i.m., 30 min before intraplantar capsaicin 1 μg; 5-min observation. How it is done:
On the day of testing, ICR male mice were treated by intramuscular injection with equal volume of saline, H4 (10 and 30 μg/kg i.m.), or a positive control in the form of the potent Nav1.7 antagonist PF-05198007 (100 μg/kg i.m.) ([35]). Thirty minutes following test article treatment, animals were subjected to intraplantar injection of 1 μg of capsaicin in a volume of 20 μl of 5% EtOH in saline into the right hind paw. Immediately after the capsaicin injection, the total time spent engaged in licking of the injected hind paw was manually recorded over a 5-min period. All dosing and scoring activities were conducted by experimenters who were fully blinded to treatment conditions.

For assay [3], the system named is CFA-induced mechanical allodynia. The arrangement: species or system mice. The settings on record: mouse, in vivo.

Read-outs that look alike come from different tables or passages of the source.

Regarding Hainantoxin-III [Compound 1], the “paw licking time, early phase” value in assay [1] (100 μg/kg i.m., 30 min before formalin, early phase 0-10 min, control 145.2 ± 6.9 s) is on record as 68.1 ± 9.7 s. In assay [1] (100 μg/kg i.m., 30 min before formalin, late phase 15-35 min, control 224 ±16.7 s), the “paw licking time, late phase” value was found to be 71.0 ± 13.0 s. Further, in the assay on acute heat pain response (100 μg/kg i.p., 1 h after treatment, plate 55 °C, mean ± SD, n = 5 to 8), the hot plate latency amounted to 15.1 ± 0.9 s. Besides, in the assay on hNav1.7 mutants, the “affinity for hNav1.7 mutants versus WT hNav1.7 (in words)” value is reported as “did not change significantly”.

`Nc1[nH]ncc1-c1cc(Cl)ccc1Oc1cc(F)c(S(=O)(=O)Nc2cscn2)cc1Cl` [PF-05089771]: the “capsaicin-elicited paw licking response (in words)” value in assay [2] is recorded as “significantly blocked”.

For `CN1CC[C@]23c4c5ccc(O)c4O[C@H]2[C@@H](O)C=C[C@H]3[C@H]1C5` [morphine], in assay [3], the “duration of anti-allodynic effect” value amounted to 2 h and the “paw withdrawal threshold compared with saline (in words)” value was “significantly enhanced”. In addition, in assay [1] (mouse, in vivo), the “paw licking time, early phase” value worked out at 110.3 ± 12.9 s and the “paw licking time, late phase” value was 86.7 ± 8.5 s. In addition, the hot plate latency in the assay on acute heat pain response (mouse, in vivo, SD) is on record as 17.0 ± 0.9 s.

The record behind these values is paper PMC7988488 (The Journal of Biological Chemistry, 2021).
